# ChEMBL document CHEMBL1201862, “PubChem BioAssay data set” (2004)
# Activity calls are given as the source filed them.
# Experiments:
# [1] = target: T1, Calpain-2 catalytic subunit (Sus scrofa, UniProt P43367); experiment: m-calpain protease blockers, concentration series – biochemical, fluorogenic peptide substrate, dose response (AID 1420); type: functional
# T1 sequence (P43367 whole entry): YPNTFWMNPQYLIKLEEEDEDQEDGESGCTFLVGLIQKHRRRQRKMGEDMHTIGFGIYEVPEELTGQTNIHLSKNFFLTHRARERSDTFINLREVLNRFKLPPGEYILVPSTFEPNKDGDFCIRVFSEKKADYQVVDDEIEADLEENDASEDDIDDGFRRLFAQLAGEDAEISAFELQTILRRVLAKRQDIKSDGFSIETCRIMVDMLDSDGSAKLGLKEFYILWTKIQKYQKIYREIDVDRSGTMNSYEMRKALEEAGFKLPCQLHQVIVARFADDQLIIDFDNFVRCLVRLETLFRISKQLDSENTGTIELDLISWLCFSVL
# [2] = target: Cytochrome P450 3A4 (Homo sapiens, UniProt P08684); settings: Potency;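 note: confirmatory qHTS run detecting inhibitors and substrates of CYP3A4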
# Sequence of Cytochrome P450 3A4 (P08684 whole entry): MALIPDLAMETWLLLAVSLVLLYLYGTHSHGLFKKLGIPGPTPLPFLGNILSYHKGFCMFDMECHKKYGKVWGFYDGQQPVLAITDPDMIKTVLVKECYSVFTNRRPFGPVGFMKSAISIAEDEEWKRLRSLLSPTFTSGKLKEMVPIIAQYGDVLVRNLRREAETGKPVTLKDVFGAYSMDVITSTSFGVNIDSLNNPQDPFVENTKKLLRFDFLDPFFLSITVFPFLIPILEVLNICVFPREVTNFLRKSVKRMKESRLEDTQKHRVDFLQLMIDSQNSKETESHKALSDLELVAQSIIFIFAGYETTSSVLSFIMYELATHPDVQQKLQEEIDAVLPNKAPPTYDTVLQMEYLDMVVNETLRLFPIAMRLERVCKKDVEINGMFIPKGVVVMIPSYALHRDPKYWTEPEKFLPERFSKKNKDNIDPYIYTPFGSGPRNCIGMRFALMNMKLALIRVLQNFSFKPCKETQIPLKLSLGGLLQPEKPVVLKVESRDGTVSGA
# [3] = target: T2, Short transient receptor potential channel 4 (Mus musculus, UniProt Q9QUQ5); experiment: calcium entry via TRPC4 opening agents – cell-based, HEK293 TRPC4/mu-opioid, Fluo-4 calcium, dose response (AID 434937); type: functional
# T2 sequence (Q9QUQ5 whole entry): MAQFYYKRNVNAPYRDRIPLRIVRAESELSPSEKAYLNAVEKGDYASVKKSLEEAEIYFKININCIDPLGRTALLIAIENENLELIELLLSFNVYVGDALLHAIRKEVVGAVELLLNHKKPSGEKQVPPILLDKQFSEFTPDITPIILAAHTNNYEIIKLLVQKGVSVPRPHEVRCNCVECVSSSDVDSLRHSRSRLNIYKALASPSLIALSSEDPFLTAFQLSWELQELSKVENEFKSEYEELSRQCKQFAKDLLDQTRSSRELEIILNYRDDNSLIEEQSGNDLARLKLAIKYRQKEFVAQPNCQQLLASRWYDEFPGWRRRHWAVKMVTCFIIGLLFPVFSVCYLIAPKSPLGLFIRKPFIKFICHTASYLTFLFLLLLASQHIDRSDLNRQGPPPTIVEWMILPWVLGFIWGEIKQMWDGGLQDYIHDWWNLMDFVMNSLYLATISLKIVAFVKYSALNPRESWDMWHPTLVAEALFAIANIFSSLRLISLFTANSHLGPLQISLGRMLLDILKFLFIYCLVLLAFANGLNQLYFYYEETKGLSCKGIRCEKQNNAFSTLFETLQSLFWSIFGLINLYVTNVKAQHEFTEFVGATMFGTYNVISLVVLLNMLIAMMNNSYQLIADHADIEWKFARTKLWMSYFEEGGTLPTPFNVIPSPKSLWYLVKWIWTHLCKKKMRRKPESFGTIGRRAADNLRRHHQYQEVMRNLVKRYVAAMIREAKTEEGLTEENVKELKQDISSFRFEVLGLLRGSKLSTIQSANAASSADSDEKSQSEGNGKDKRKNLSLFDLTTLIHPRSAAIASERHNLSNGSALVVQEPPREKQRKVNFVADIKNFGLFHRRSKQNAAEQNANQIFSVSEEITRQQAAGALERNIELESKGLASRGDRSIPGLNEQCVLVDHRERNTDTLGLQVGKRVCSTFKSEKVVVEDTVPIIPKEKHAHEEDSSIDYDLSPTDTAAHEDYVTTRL
# [4] = target: T3, Streptokinase A (Streptococcus pyogenes serotype M1, UniProt P10520); experiment: viability-normalized secreted streptokinase activity reduction – plasminogen activation absorbance, OD405, dose response (AID 1914); type: functional, Streptococcus pyogenes M1 GAS;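 note: secreted streptokinase activity via plasminogen activation per viability signal from cell pellet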
# T3 sequence (P10520 whole entry): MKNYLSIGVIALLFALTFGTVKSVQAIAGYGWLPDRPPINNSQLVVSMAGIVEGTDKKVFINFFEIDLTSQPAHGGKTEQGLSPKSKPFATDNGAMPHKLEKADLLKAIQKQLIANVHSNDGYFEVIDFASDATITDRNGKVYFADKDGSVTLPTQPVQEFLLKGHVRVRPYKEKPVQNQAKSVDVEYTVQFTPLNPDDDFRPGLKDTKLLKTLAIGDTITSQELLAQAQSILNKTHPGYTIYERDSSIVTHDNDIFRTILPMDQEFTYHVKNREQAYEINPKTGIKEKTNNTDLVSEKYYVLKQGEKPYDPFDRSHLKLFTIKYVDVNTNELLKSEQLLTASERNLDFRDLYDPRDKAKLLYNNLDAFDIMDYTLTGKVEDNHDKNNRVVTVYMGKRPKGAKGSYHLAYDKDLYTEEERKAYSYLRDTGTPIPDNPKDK
# [5] = system: Streptococcus; experiment: GAS UMAA2166 growth inhibition – luminescence, BacTiterGlo, counter-screen for streptokinase expression inhibitor project, dose response (AID 1915); type: functional, organism-based;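 note: potency for reduction of bacterial viability or growth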
# [6] = system: Streptococcus sp. 'group A'; experiment: Streptococcus pyogenes SK(-)GAS viability under kanamycin – luminescence, BacTiterGlo, confirmation, counter-screen for streptokinase expression inhibitor project, dose response (AID 1900); type: functional, organism-based
# [7] = system: INS1; experiment: INS-1E survival protection against cytokine death – cell-based, luminescence, retest, dose response (AID 449756); type: functional; settings: Rattus norvegicus;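 note: cell death triggered by IL-1 beta plus TNF-alpha plus IFN-gamma mixture; protective hits raise ATP signal compared with cytokine alone wells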
# [8] = target: T4, Ubiquitin-conjugating enzyme E2 N (Homo sapiens, UniProt P61088); type: functional;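 note: Dose-response confirmation in a TR-FRET assay detecting UBC13-driven polyubiquitin chain formation, inhibition measured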
# T4 sequence (P61088 whole entry): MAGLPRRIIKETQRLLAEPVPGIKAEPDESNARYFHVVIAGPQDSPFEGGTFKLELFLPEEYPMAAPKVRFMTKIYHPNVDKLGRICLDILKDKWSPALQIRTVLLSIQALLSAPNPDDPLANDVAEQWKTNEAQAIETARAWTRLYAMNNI
# [9] = microbe, parasite or virus in culture; type: functional; settings: Mycobacterium tuberculosis
# [10] = target: Induced myeloid leukemia cell differentiation protein Mcl-1 (Homo sapiens, UniProt Q07820); type: functional
# Sequence of Induced myeloid leukemia cell differentiation protein Mcl-1 (Q07820 whole entry): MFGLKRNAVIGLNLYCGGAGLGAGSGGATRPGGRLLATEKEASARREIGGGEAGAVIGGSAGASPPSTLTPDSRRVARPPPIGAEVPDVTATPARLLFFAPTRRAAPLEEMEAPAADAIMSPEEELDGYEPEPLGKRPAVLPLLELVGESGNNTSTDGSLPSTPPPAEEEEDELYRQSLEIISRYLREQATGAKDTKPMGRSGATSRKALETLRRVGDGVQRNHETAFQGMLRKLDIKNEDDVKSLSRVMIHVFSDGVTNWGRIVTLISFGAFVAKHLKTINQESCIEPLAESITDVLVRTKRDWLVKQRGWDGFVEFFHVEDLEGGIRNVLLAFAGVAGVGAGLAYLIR
# [11] = target: Nonstructural protein 1 (Influenza A virus, UniProt Q194T2); type: functional, Influenza A virus (A/California/07/2009(H1N1))
# Sequence of Nonstructural protein 1 (Q194T2 whole entry): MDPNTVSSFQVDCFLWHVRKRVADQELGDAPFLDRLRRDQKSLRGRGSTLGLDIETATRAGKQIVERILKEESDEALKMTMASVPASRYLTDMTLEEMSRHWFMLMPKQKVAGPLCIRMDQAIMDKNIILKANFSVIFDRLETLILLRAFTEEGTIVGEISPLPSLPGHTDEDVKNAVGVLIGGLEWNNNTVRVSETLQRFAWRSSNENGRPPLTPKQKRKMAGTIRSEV
# [12] = target: T5, Zinc finger protein mex-5 (Caenorhabditis elegans, UniProt Q9XUB2); experiment: potency of MEX-5 RNA-binding blockers – biochemical, C. elegans, fluorescence polarization, dose response (AID 1960)
# T5 sequence (Q9XUB2 whole entry): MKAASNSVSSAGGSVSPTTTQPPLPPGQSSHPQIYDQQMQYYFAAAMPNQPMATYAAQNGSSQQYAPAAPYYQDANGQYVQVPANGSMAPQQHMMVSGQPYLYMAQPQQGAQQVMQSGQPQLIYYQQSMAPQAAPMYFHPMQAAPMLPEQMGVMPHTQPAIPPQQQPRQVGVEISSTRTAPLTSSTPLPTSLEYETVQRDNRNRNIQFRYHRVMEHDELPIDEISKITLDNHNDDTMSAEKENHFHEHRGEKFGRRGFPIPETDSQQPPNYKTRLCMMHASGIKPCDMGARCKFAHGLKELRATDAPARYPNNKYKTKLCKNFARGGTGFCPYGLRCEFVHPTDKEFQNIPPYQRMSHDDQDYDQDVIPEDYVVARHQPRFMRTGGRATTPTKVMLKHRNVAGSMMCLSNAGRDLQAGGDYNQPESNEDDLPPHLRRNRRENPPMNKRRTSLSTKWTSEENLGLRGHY
# [13] = target: T6, RNA-binding protein pos-1 (Caenorhabditis elegans, UniProt G5EF15); experiment: disruptors of C. elegans POS-1 RNA interaction – biochemical, fluorescence polarization, dose response (AID 1964);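 note: purified POS-1 fused to maltose binding protein made in E. coli; potency of compounds blocking POS-1 binding to fluorescent RNA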
# T6 sequence (G5EF15 whole entry): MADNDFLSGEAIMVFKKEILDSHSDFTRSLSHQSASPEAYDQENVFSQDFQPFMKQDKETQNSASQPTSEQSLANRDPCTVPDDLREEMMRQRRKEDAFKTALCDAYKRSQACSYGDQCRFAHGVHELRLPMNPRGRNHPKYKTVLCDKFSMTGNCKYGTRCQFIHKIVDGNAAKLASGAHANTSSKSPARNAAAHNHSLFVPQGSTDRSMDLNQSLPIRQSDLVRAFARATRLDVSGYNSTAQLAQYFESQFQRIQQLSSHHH
# [14] = target: Cytochrome P450 2D6 (Homo sapiens, UniProt P10635);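 note: CYP2D6 member of a cytochrome P450 panel assay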
# Sequence of Cytochrome P450 2D6 (P10635 whole entry): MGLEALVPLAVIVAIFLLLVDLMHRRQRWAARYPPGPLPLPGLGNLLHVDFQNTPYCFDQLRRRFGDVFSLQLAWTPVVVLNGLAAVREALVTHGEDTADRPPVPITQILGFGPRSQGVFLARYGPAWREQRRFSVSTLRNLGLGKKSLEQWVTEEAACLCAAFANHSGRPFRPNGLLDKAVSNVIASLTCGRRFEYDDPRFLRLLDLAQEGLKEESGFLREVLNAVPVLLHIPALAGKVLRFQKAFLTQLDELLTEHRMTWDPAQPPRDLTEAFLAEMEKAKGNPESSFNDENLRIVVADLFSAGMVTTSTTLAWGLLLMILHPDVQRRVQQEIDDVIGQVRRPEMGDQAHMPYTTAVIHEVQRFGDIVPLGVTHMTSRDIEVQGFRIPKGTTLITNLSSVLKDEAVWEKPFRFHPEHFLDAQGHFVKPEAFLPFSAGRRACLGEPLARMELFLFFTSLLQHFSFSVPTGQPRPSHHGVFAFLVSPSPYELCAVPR
# [15] = Luminescence Cell-Based Dose Response HTS to Identify Inhibitors of 5'UTR Stem-Loop Driven Prion Protein mRNA Translation in H4 Neuroglioblastoma Cells. [Related pubchem assays: 1827 (Project Summary), 1813 (Primary HTS)]; type: functional
# [16] = alpha-synuclein stem-loop luciferase translation blockers – H4 neuroglioma cells, luminescence, confirmation (AID 1988); type: functional, cell-based
# [17] = luciferase reporter signal suppression in cells – H4 neuroglioma cells, luminescence, dose response (AID 1990); type: functional, cell-based
# [18] = viability of uninfected HEp-2 cells – cell-based, HTS, cytotoxicity control for RSV inhibitor project, dose response (AID 2410); type: functional; settings: human respiratory syncytial virus
# [19] = NIH3T3 cell viability loss – ATP luminescence, mouse fibroblasts, counter-screen, dose response (AID 2010); type: functional, cell-based;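 note: cells exposed to compound for about 90 hours before reading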
# [20] = Trypanosoma cruzi growth suppression in host cells – NIH3T3 host cells, beta-gal luminescence, confirmation (AID 2044); type: functional, cell-based;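 note: intracellular parasites grown in NIH/3T3 mouse fibroblasts as host cells; luminescent beta-galactosidase reporter signal from transgenic T. cruzi replicating inside host cells; inhibitors lower the luminescence signal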
# [21] = target: Luciferin 4-monooxygenase (Photinus pyralis, UniProt P08659); experiment: inhibition of purified Photinus pyralis luciferase – biochemical, luminescence, dose response (AID 1891)
# Sequence of Luciferin 4-monooxygenase (P08659 whole entry): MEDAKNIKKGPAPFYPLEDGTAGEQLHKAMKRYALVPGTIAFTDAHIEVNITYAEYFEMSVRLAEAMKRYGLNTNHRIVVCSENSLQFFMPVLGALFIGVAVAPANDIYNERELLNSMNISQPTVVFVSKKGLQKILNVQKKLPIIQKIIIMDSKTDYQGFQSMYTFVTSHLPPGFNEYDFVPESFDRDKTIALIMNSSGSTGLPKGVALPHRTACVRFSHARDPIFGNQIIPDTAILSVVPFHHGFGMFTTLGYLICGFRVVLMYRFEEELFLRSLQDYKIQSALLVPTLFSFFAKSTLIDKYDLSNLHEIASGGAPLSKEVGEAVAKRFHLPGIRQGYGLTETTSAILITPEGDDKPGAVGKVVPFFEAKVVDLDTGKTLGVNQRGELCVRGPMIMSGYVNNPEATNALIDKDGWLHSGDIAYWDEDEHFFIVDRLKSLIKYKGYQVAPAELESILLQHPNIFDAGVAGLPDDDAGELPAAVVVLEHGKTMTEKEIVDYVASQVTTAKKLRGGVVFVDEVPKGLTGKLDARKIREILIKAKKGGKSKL
# [22] = Luminescence Cell-Based Dose Confirmation HTS to Identify Inhibitors of Platelet Dense Granule Release. [Related pubchem assays: 1663 (Primary HTS), 1678 (Summary of Project)]; type: functional
structure (smiles),measurement,setting,value
COC(=O)c1cccc(NC(=O)c2cccc(OC)c2)c1,IC50,[1],14.6 µM (not active)
CC(=O)OC1CC2C(C)(C)C(O)C=C[C@@]2(C)C2CC[C@@]3(C)C(c4ccoc4)OC(=O)C4OC43[C@]12C (stereo not given in full),AC50,[2],12.6 µM (inconclusive)
CCOc1ccccc1C1CC(c2ccc(Cl)cc2)Nc2nc(N)nn21 (stereo not given),EC50,[3],11.9 µM (active)
O=C(Nc1ccccc1C(=O)O)c1cccc(NC(=O)c2ccc(Br)o2)c1,EC50,[4],6.41 µM (active)
same,EC50,[5],9.37 µM (active)
same,EC50,[6],6.27 µM (active)
same,IC50,[1],12.1 µM (not active)
CC(=O)OC1CCC2(C)C3=C(CCC2C1(C)C)[C@]1(C)CCC(C(C)CCC=C(C)C)[C@]1(C)CC3 (stereo not given in full),AC50,[2],31.6 µM (inconclusive)
CC(CN1CCCC(C(N)=O)C1)c1ccccc1 (stereo not given),EC50,[3],1.19 µM (active)
COC(=O)C1=C(c2ccc(OCc3ccccc3)cc2)C[C@@H]2CC[C@H]1N2C(=O)NC1CCN(Cc2ccccc2)CC1,AC50,[7],3.96 µM (active)
same,IC50,[8],> 20 µM (inactive)
same,CC50,[9],17.6 µM (active)
O=C(O)CC(NC(=O)C1c2ccccc2Oc2ccccc21)c1ccc(OC2CCCC2)cc1 (stereo not given),IC50,[1],6.06 µM (not active)
Cc1ccc(NS(=O)(=O)c2cc([N+](=O)[O-])ccc2NNC(=S)Nc2cccc(Cl)c2)c(C)c1,IC50,[10],5.74 µM (not active)
same,IC50,[11],17 µM (active)
CC(N)Cc1c[nH]c2cc3c(cc12)OCCO3 (stereo not given),EC50,[3],1.33 µM (active)
Cc1cc(C(=O)O)ccc1-n1c(C)cc(/C=C(/C#N)C(=O)Nc2ccccc2)c1C,EC50,[12],> 300 µM (not active)
same,EC50,[13],> 300 µM (not active)
same,IC50,[1],12.6 µM (not active)
CCN1C(NCc2ccc(OC)cc2)=N[C@@H](CCc2ccccc2)[C@H](C(=O)NCc2ccc(OC)cc2)[C@H]1C,IC50,[8],> 20 µM (inactive)
COc1ccc(CNn2c(C)nc3ccccc3c2=O)cc1,AC50,[14],25.1 µM (inconclusive)
same,IC50,[8],> 20 µM (inactive)
N=C1C=CC(=C(c2cccc(N)c2)c2cccc(N)c2)C=C1,AC50,[2],5.01 µM (active)
CC(C)CC1(C(=O)NCc2ccccn2)C=CCN1C(=O)c1ccccc1 (stereo not given),AC50,[2],15.8 µM (inconclusive)
O=C(CN1C(=O)C2CCCCC2C1=O)Nc1nc(-c2ccccn2)cs1 (stereo not given),EC50,[15],14.3 µM (active)
same,IC50,[11],16 µM (active)
same,EC50,[16],> 120 µM (not active)
same,EC50,[17],> 120 µM (not active)
CCN(CCCNS(=O)(=O)c1cc(-c2cc(C)no2)ccc1C)Cc1ccccc1,EC50,[3],0.299 µM (active)
CC(=O)c1c(C(C)=O)c(C)n(C(c2ccccc2)c2ccccc2)c1C,IC50,[1],> 50 µM (not active)
CCOC(=O)c1c(C)[nH]c(C(=O)COC(=O)C23CC4CC(CC(Cl)(C4)C2)C3)c1C,CC50,[18],> 50 µM (active)
same,IC50,[1],4.08 µM (not active)
Cc1cc2ccccc2n1CCNC(=O)C(C)Oc1ccccc1 (stereo not given),EC50,[19],13.8 µM (active)
same,IC50,[11],64.6 µM (active)
same,EC50,[20],0.705 µM (active)
C=C(C)C(O)/C=C/C=C/c1ccccc1 (stereo not given),AC50,[2],3.98 µM (inconclusive)
O=[N+]([O-])c1ccc(N=Nc2ccc(O)c3ccccc23)cc1,IC50,[11],25.9 µM (active)
C#Cc1cccc(C(=O)NC2CCCN(C3Cc4ccccc4C3)C2)c1 (stereo not given),EC50,[3],0.596 µM (active)
COc1ccc2nc(NN=C(C)c3ccccn3)cc(C)c2c1,IC50,[11],7.94 µM (active)
COc1cccc(/C=N/Nc2ccnc(O)n2)c1O,AC50,[7],0.67 µM (active)
same,IC50,[11],10.6 µM (active)
same,EC50,[21],> 112 µM (not active)
same,EC50,[22],10.7 µM (active)
COc1cccc(O)c1O [3-METHOXYCATECHOL],AC50,[2],20 µM (inconclusive)
C=CC(C1=CC(=O)C=CC1=O)c1ccccc1 (stereo not given) [DALBERGIONE],AC50,[2],31.6 µM (inconclusive)
